The structures appear in SMILES notation.

From ChEMBL document CHEMBL1136679, “Phenylacetic acid derivatives as hPPAR agonists” (Bioorg Med Chem Lett, 2003) come the findings set out here.

Series [1] has as its target T1, Peroxisome proliferator-activated receptor alpha (Homo sapiens, UniProt Q07869).
T1 sequence (Q07869 whole entry): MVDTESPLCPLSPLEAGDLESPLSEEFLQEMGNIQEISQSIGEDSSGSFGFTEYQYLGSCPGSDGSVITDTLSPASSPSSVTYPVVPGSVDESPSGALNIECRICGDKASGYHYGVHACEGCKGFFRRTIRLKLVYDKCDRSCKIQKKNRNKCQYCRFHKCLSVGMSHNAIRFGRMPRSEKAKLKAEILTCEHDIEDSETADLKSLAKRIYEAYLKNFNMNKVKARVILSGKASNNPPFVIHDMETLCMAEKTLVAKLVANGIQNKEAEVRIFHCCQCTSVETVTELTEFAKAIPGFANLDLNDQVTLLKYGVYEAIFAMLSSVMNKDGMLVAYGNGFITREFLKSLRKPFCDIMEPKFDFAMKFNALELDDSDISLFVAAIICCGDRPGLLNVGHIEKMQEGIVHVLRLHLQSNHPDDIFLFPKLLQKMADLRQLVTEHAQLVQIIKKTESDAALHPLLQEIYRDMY

The species named for series [2] is Rattus norvegicus. The class given is functional, Plasma. Particulars: at 10 mg/kg/day; call rule not given here.
Series [3] is described as follows: in vivo. The following applies: male, Sprague-Dawley, rat, po, 10 mg/kg.
Series [4] is filed under the species Mus musculus. The class given is functional, Plasma. The following applies: at 10 mg/kg/day.
For series [5], the target named is T1, Peroxisome proliferator-activated receptor alpha. The source holds these as a separate data set.
The nature of series [6]: in vivo. The following applies: male, Sprague-Dawley, rat, iv.
The species entered for series [7] is Mus musculus. In kind it is functional, Plasma. Particulars: at 30 mg/kg/day.
Series [8] is filed under the species Rattus norvegicus. In kind it is functional, Plasma. The following applies: at 30 mg/kg/day.
For series [9], the species on record is Rattus norvegicus. In kind it is functional, Plasma. The following applies: at 30 mg/kg/day. This is another data set of the same source.
Series [10] is filed under the species Rattus norvegicus. In kind it is functional, Plasma. Particulars: at 10 mg/kg/day. This is another data set of the same source.
For series [11], the species on record is Rattus norvegicus. The class given is functional, Plasma. The following applies: at 10 mg/kg/day. The source holds these as a separate data set.
For series [12], the species on record is Mus musculus. In kind it is functional, Plasma. The following applies: at 30 mg/kg/day. This is another data set of the same source.
For series [13], the species on record is Rattus norvegicus. The class given is functional, Plasma. Particulars: at 30 mg/kg/day. This is another data set of the same source.
The species named for series [14] is Mus musculus. The following applies: Plasma.
The species named for series [15] is Mus musculus. In kind it is functional, Plasma. The following applies: at 10 mg/kg/day. This is another data set of the same source.
The target of series [16] is T2, Peroxisome proliferator-activated receptor delta (Homo sapiens, UniProt Q03181).
T2 sequence (Q03181 whole entry): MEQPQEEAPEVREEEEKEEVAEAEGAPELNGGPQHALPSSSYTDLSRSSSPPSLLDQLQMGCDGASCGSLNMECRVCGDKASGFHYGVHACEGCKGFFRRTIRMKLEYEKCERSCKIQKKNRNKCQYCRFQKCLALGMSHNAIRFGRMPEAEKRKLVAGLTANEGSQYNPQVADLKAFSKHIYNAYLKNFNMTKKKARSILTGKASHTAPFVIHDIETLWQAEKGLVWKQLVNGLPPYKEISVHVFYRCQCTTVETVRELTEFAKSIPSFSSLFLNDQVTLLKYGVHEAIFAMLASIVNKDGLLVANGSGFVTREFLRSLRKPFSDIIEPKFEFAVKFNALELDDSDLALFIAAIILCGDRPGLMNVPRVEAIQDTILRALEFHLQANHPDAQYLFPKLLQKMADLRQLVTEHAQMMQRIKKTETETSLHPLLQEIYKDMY

In series [17] the target is T2, Peroxisome proliferator-activated receptor delta. The source holds these as a separate data set.
For series [18], the species on record is Rattus norvegicus. In kind it is functional, Plasma. The following applies: at 100 mg/kg/day.
Series [19] is filed under the species Rattus norvegicus. In kind it is functional, Plasma. The following applies: at 100 mg/kg/day. The source holds these as a separate data set.
A short description of series [20]: in vivo. Particulars: male, Sprague-Dawley, rat, iv. This is another data set of the same source.
Series [21] is filed under the species Rattus norvegicus. In kind it is functional, Plasma. Particulars: at 100 mg/kg/day. This is another data set of the same source.
The species entered for series [22] is Mus musculus. In kind it is functional, Plasma. Particulars: at 100 mg/kg/day.
For series [23], the species on record is Mus musculus. In kind it is functional, Plasma. Particulars: at 100 mg/kg/day. This is another data set of the same source.
The species named for series [24] is Mus musculus. In kind it is functional, Plasma. The following applies: at 30 mg/kg/day. This is another data set of the same source.
The species entered for series [25] is Rattus norvegicus. The class given is functional, Plasma. The following applies: at 30 mg/kg/day. This is another data set of the same source.
The species named for series [26] is Rattus norvegicus. The class given is functional, Plasma. Particulars: at 30 mg/kg/day. The source holds these as a separate data set.
For series [27], the species on record is Rattus norvegicus. The following applies: in vivo, po, 10 mg/kg.
For series [28], the species on record is Mus musculus. The class given is functional, Plasma. The following applies: at 3 mg/kg/day.
Series [29] is filed under the species Rattus norvegicus. In kind it is functional, Plasma. Particulars: at 3 mg/kg/day.
Series [30] is filed under the species Rattus norvegicus. In kind it is functional, Plasma. Particulars: at 3 mg/kg/day. This is another data set of the same source.
For series [31], the species on record is Rattus norvegicus. The class given is functional, Plasma. The following applies: at 3 mg/kg/day. The source holds these as a separate data set.
For series [32], the species on record is Mus musculus. In kind it is functional, Plasma. Particulars: at 3 mg/kg/day. This is another data set of the same source.
The species named for series [33] is Mus musculus. The class given is functional, Plasma. Particulars: at 30 mg/kg/day. The source holds these as a separate data set.

Usually IC50 stands for the point on the concentration scale where inhibition reaches its midpoint. A low value points to greater potency in that assay. By bioavailability is commonly meant dose-corrected exposure relative to a reference, in per cent. What is called EC50 is the concentration giving half of the maximal effect. The term half-life denotes how long it takes for the measured level to halve. Low values mean rapid decline, high ones slow decline. Consider `CCCc1c(OCCCSc2ccc(CC(=O)O)cc2Cl)ccc2c(-c3ccccc3)coc12` [L-796449], for which inhibition in series [1] was half-maximal at 54 nM (IC50). For the same compound, the Dec amounted to 67% in the series listed under Rattus norvegicus [2]; 86% in the series listed under Mus musculus [7]; 88% in the series filed under Rattus norvegicus [9]; 13% in the series filed under Rattus norvegicus [10]; 66% in the series filed under Rattus norvegicus [13]; 72% in the series listed under Mus musculus [15]. For the same compound, the bioavailability in “in vivo [3]” worked out at 84%. Also, the Corr in the series filed under Mus musculus [4] worked out at 77%; in the series listed under Rattus norvegicus [8] it was 56%; in the series listed under Rattus norvegicus [11], 27%; in the series listed under Mus musculus [12] it was 94%. Further, the EC50 in series [5] (read-out: EC50) amounted to 18 nM. This compound had a half-life in “in vivo [6]” of 2.1 h. This compound also returned a CL (mL.min-1.kg-1) in the series listed under Mus musculus [14] of 3.3.

On to `CCCc1c(OCCCSc2ccc(CC(=O)O)cc2Cl)ccc2c(CC)coc12`, for which 1730 nM corresponded to half-maximal inhibition in series [1] (IC50). Moreover, in [5] (read-out: EC50), the 50% effective concentration (EC50) turned out to be 1300 nM. Further, the Dec in the series listed under Mus musculus [7] is recorded as 60%. This compound came in with a Corr in the series filed under Mus musculus [12] of 74%.

Regarding `CN(CCOc1ccc(CC2SC(=O)NC2=O)cc1)c1ccccn1` (stereo not given) [ROSIGLITAZONE], the Dec in the series listed under Rattus norvegicus [2] is 54%; in the series listed under Rattus norvegicus [9] it was 86%; in the series filed under Rattus norvegicus [10], 78%; in the series listed under Rattus norvegicus [13], 94%; in the series listed under Mus musculus [15] it was 75%. The Corr in the series listed under Mus musculus [4] worked out at 65%; in the series filed under Rattus norvegicus [8], 109%; in the series filed under Rattus norvegicus [11] it was 99%. Also, the EC50 result in series [5] is “Not Active”.

As to `CCCc1c(OCCCSc2ccc(CC(=O)O)cc2Cl)ccc(C(=O)CC)c1O`, the results for the IC50 in [16] and in series [1] were 20 nM and 600 nM, respectively. Also, the EC50 in [5] (read-out: EC50) was 260 nM; in series [17], 10 nM.

The clearance is the volume of plasma or blood freed of the substance per unit of time. Higher therefore signals a high capacity for elimination. For the compound `CCCc1c(OCCCSc2ccc(CC(=O)O)cc2Cl)ccc2c(CC)noc12` [L-165461], the Dec is on record as 52% in the series listed under Rattus norvegicus [18]; 70% in the series listed under Rattus norvegicus [21]; -14% in the series filed under Rattus norvegicus [9]; 67% in the series filed under Mus musculus [22]; 42% in the series filed under Rattus norvegicus [13]. Also, the Corr in the series filed under Rattus norvegicus [19] is 66%; in the series filed under Rattus norvegicus [8], 29%; in the series filed under Mus musculus [23], 33%. The same compound returned an IC50 in [1] of 570 nM. The same compound yielded a bioavailability in “in vivo [3]” of 50%. The same compound returned a clearance in “in vivo [20]” of 17.6 mL/min/kg. Moreover, the EC50 in series [5] (read-out: EC50) came out at 247 nM. Moreover, the half-life in “in vivo [6]” was 1 h.

As to `CCCc1c(OCCCSc2ccc(CC(=O)O)cc2Cl)ccc(/C(CC)=N/O)c1O`, the Dec was found to be 54% in the series listed under Rattus norvegicus [18], 80% in the series listed under Rattus norvegicus [21], 15% in the series listed under Rattus norvegicus [9] and 65% in the series filed under Rattus norvegicus [13]. For the same compound, the results for the Corr in the series filed under Rattus norvegicus [19] and in the series filed under Rattus norvegicus [8] were 89% and 44%, respectively. The IC50 came out at 10 nM in series [16] and 100 nM in [1]. The compound also showed a bioavailability in “in vivo [3]” of 33%. This compound also displayed a clearance in the series “in vivo [20]” of 5.7 mL/min/kg. Moreover, the figures for the EC50 in series [5] (read-out: EC50) and in series [17] were 74 nM and 9 nM, respectively. This compound also showed a half-life in the series “in vivo [6]” of 2.8 h.

In the case of `CCCc1c(OCCCSc2ccc(CC(=O)O)cc2Cl)ccc2c(C(F)(F)F)noc12`, the figures for the IC50 in series [16] and in series [1] were 10 nM and 310 nM, respectively. Also, the Dec was 52% in the series filed under Rattus norvegicus [2]; 81% in the series listed under Mus musculus [24]; 74% in the series listed under Rattus norvegicus [25]; -65% in the series filed under Rattus norvegicus [26]; 46% in the series listed under Mus musculus [28]; -53% in the series filed under Rattus norvegicus [10]. Besides, the Dec in the series filed under Rattus norvegicus [30] was 45%; in the series filed under Rattus norvegicus [31], -34%; in the series listed under Mus musculus [15], 46%. Besides, the bioavailability in “in vivo [3]” stood at 100%. The compound further gave a clearance in the series “in vivo [20]” of 2.6 mL/min/kg. For the same compound, the Corr in the series filed under Mus musculus [4] came out at 71%; in the series listed under Rattus norvegicus [29], 18%; in the series listed under Rattus norvegicus [8], 95%; in the series filed under Rattus norvegicus [11], 83%; in the series listed under Mus musculus [32], 30%; in the series listed under Mus musculus [33] it was 96%. In addition, the EC50 in series [5] (read-out: EC50) was found to be 125 nM; in series [17] it was 5 nM. The compound also displayed a nAUC in the series listed under Rattus norvegicus [27] of 2520 ng·h/mL. The compound further gave a half-life in the series “in vivo [6]” of 4.7 h.

Regarding `CCCc1c(OCCCSc2ccc(CC(=O)O)cc2Cl)ccc(C(C)=O)c1O`, the concentration for half-maximal inhibition (IC50) in series [16] was 20 nM; in series [1], 7400 nM. Besides, the EC50 in series [5] (read-out: EC50) came out at 1600 nM; in series [17], 80 nM.
